# Patent US20080119408A1, “PTH FORMULATIONS FOR INTRANASAL DELIVERY” (NASTECH PHARMACEUTICAL COMPANY INC., priority 2006, published 2008)
# Where two headings read alike, the source gives them in different places. Ends that are not written are not given here.
# Columns and labels:
# [1] = test system: Crl:CD(SD) rats; test: 13-week intranasal toxicity and toxicokinetics in rats; assay type: in vivo, rat
# Experimental: (§1) Toxicity and toxicokinetics of PTH1-34 formulations were evaluated in male and female Crl:CD(SD) rats. PTH1-34 (synthetic form) was administered once daily via intranasal instillation to rats for at least 13 weeks. For comparison, one group received commercially available recombinant PTH1-34 via subcutaneous injection. Assessment of toxicity was based on mortality, clinical observations, ophthalmic examinations, body weights, food consumption, clinical and anatomic pathology, and toxicokinetic evaluations. Two synthetic PTH1-34 formulations were used in the study, PTH-072-1 and PTH-074 at low and high doses (formulations are shown in Table 22).
# (§2) Doses in rats were determined for body weight, body surface area, and nasal surface area. Representative concentrations of PTH1-34 for clinical studies were considered to be 1.5 mg/mL and 3.0 mg/mL (and a dose volume of 100 μL). For the lower concentration, a 70 kg human would receive a dose of 2.1 μg/kg based on body weight. At the higher dose a human would receive a dose of 4.3 μg/kg based on body weight.
# [2] = as above; assay type: in vivo, rat; conditions: Crl:CD(SD), rat, in vivo, sc, 25 μg/kg/day, female rats, administered by injection (subcutaneous)
# Experimental: as §1, §2
# [3] = 13-week intranasal toxicity and toxicokinetics in dogs; assay type: in vivo; conditions: both sexes, beagle, dog, in vivo, sc, 6 μg/kg/day; dogs, subcutaneous injection; read-out: Tmax for PTH1-34
# Experimental: (§3) Toxicity and toxiokinetics of PTH1-34 was studied after administration of PTH1-34 once daily by intranasal instillation to dogs for at least 13 weeks. One additional group received recombinant PTH1-34 by subcutaneous injection for comparison.
# (§4) Male and female beagles were assigned among six study groups. Animals assigned to groups 1 through 5 received an intranasal installation of a negative control (0.9% Sodium Chloride for Injection, USP), 40 or 80 μg/kg of body weight/day (μg/kg/day) PTH1-34 (synthetic form) in the PTH-072 formulation (Example 10, Table 22), or 80 or 200 μg/kg/day PTH1-34 (synthetic form) in the PTH-074-1 formulation (Example 10, Table 22).
# (§5) Results were collected for mortality, clinical signs, gross nasal passage observations, ophthalmic findings, electrocardiogram measurements, blood pressure and heart rate differences, body weights, food consumption, clinical and anatomic pathology, and toxicokinetic evaluations. All animals in the study survived to scheduled necropsy. […] The nasal cavity was sectioned such that meaningful regions of the cavity were represented, and the soft (e.g., epithelial lining) or hard tissues (e.g., bone and cartilage based structures) of the nasal cavity were examined.
# [4] = test system: beagles; test: as above; assay type: in vivo
# Experimental: as §3, §4, §5
# [5] = test system: MatTek in vitro system; test: Chlorobutanol permeation study of API formulations (PTH, Calcitonin), MatTek in vitro system, ELISA; assay type: cell-based; conditions: CB 0-5 mg/mL
# Experimental: Chlorobutanol (CB) was added to API formulations (PTH and Calcitonin) to test permeation in the MatTek in vitro system. CB was tested at varying concentrations (0, 1.25, 2.5, 3.75 and 5 mg/mL) in 10 mM citrate buffer, pH 4.0 and adjusted for a final target osmolality of 220 mOsm with sorbitol. Calcitonin and PTH were added at 2 mg/mL in each of the respective control or test formulations (n=6 insert per formulation). 1 mL of each formulation was placed into silanized 3 cc vials. A 0.1 mL volume of a 20× stock of one of the API compounds was added to 0.9 mL of 1.1× concentrated diluent form of each of the CB formulations to make the unique formulations.
# [6] = test system: EpiAirway Tissue Model (normal, human-derived tracheal/bronchial epithelial cells); test: Cytotoxicity, LDH assay (Example 3); assay type: cell-based; conditions: 60-min samples
# Experimental: (§6) Each tissue insert was placed in an individual well containing 1 ml media. On the apical surface of the inserts, 100 μl of test formulation was applied, and the samples were shaken for 1 h at 37° C. The underlying culture media samples were taken at 20, 40, and 60 minutes and stored at 4° C. for up to 48 hours for lactate dehydrogenase (LDH, cytotoxicity) and sample penetration (PTH HPLC evaluations). The 60-min samples were used for the lactate dehydrogenase (LDH, cytotoxicity) assay. Transepithelial electrical resistance (TER) was measured before and after the 1-h incubation. Following the incubation, the cell inserts were analyzed for cell viability via the mitochondrial dehydrogenase (MDH) assay.
# The amount of cell death was assayed by measuring the loss of lactate dehydrogenase (LDH) from the cells using a CytoTox 96 Cytoxicity Assay Kit (Promega Corp., Madison, Wis.). LDH analysis of the apical media was evaluated. The appropriate amount of media was added to the apical surface in order to total 250 μL, taking into consideration the initial sample loading volume. The inserts was shaken for 5 minutes. 150 μL of the apical media was removed to eppendorf tubes and centrifuged at 10000 rpm for 3 minutes. […] Following incubation, 50 μl of stop solution was added to each well and the plates read on an optical density plate reader at 490 nm.
# [7] = test system: EpiAirway Tissue Model (normal, human-derived tracheal/bronchial epithelial cells); test: Transepithelial electrical resistance (TER), MatTek cell model (Examples 1-2); assay type: cell-based; conditions: 1-h incubation, apical application
# Experimental: The effect of various permeation enhancers on PTH formulations was measured in a MatTek cell model (MatTek, Corp. Ashland, Mass.). Three permeation enhancers (EDTA, ethanol, and polysorbate 80 (Tween 80)) were evaluated individually and in combination with one another. Sorbitol was used as a tonicifiers to adjust the osmolality of formulations to 220 mOsm/kg whenever applicable. The formulation pH was adjusted to ˜4.0. The permeation enhancer combination of 45 mg/ml Me-β-CD, 1 mg/ml DDPC, and 1 mg/ml EDTA at pH 4.5 served as the positive control. The formulation containing sorbitol only was used as the negative control. Each formulation was evaluated in the presence and absence of preservative. […]
# Each tissue insert was placed in an individual well containing 1 ml media. […] Transepithelial electrical resistance (TER) was measured before and after the 1-h incubation. Following the incubation, the cell inserts were analyzed for cell viability via the mitochondrial dehydrogenase (MDH) assay.
# TER measurements were accomplished using the Endohm-12 Tissue Resistance Measurement Chamber connected to the EVOM Epithelial Voltammeter (World Precision Instruments, Sarasota, Fla.) with the electrode leads. […] The background resistance was measured with 1.5 ml Media in the Endohm tissue chamber and 300 μl Media in the blank insert. […] Resistance was expressed as (resistance measured−blank)×0.6 cm^2. […]
# [8] = test system: EpiAirway Tissue Model (normal, human-derived tracheal/bronchial epithelial cells); test: Cell viability, MTT assay (Example 3); assay type: cell-based; conditions: after 1-h incubation
# Experimental: as §6
# Cell viability was assessed using the MTT assay (MTT-100, MatTek kit). Thawed and diluted MTT concentrate was pipetted (300 μl) into a 24-well plate. Tissue inserts were gently dried, placed into the plate wells, and incubated at 37° C. for 3 hours. After incubation, each insert was removed from the plate, blotted gently, and placed into a 24-well extraction plate. The cell culture inserts were immersed in 2.0 ml of the extractant solution per well (to completely cover the sample). The extraction plate was covered and sealed to reduce evaporation of extractant. […] The optical density of the samples was measured at 550 nm on a plate reader.
# [9] = anesthetized rats, cited from earlier work
compound,measurement,setting,value
"CC[C@H](C)[C@H](NC(=O)[C@H](CCC(=O)O)NC(=O)[C@H](CO)NC(=O)[C@@H](NC(=O)[C@@H](N)CO)C(C)C)C(=O)N[C@@H](CCC(N)=O)C(=O)N[C@@H](CC(C)C)C(=O)N[C@@H](CCSC)C(=O)N[C@@H](Cc1cnc[nH]1)C(=O)N[C@@H](CC(N)=O)C(=O)N[C@@H](CC(C)C)C(=O)NCC(=O)N[C@@H](CCCCN)C(=O)N[C@@H](Cc1cnc[nH]1)C(=O)N[C@@H](CC(C)C)C(=O)N[C@@H](CC(N)=O)C(=O)N[C@@H](CO)C(=O)N[C@@H](CCSC)C(=O)N[C@@H](CCC(=O)O)C(=O)N[C@@H](CCCN=C(N)N)C(=O)N[C@H](C(=O)N[C@@H](CCC(=O)O)C(=O)N[C@@H](Cc1c[nH]c2ccccc12)C(=O)N[C@@H](CC(C)C)C(=O)N[C@@H](CCCN=C(N)N)C(=O)N[C@@H](CCCCN)C(=O)N[C@@H](CCCCN)C(=O)N[C@@H](CC(C)C)C(=O)N[C@@H](CCC(N)=O)C(=O)N[C@@H](CC(=O)O)C(=O)N[C@H](C(=O)N[C@@H](Cc1cnc[nH]1)C(=O)N[C@@H](CC(N)=O)C(=O)N[C@@H](Cc1ccccc1)C(=O)O)C(C)C)C(C)C [PTH1-34, teriparatide]",trabecular bone in femur and sternum,"[1]; female rats, 25 μg/kg/day SQ, 200 μg/kg/day PTH-072-1, 500 μg/kg/day PTH-074-1 intranasally",thickened trabecular bone
same,changes in nasal turbinate tissues,"[1]; rats, 13 weeks intranasal",No changes considered to be attributable to the intranasal administration of PTH1-34 were observed
same,"clinical signs, ophthalmic observations, body weight, food consumption","[1]; rats, 13 weeks, regardless of route, dose level or formulation","No PTH1-34 related clinical signs, ophthalmic observations, body weight changes, or food consumption changes were observed"
same,Cmax,[2],7.72 to 12.2 ng/mL
same,Tmax,[2],5 min
same,half-life,[2]; read-out: t1/2 for PTH1-34,15 to 23 min
same,Tmax,[3],13 to 26 min
same,histologic changes in nasal tissues,"[4]; dog, in vivo",no histologic changes in nasal tissues
same,trabecular bone in femur and sternum,[4]; dogs dosed subcutaneously or intranasally at the high dose,minimally thickened trabecular bone
same,AUClast greater in the dog than in humans at representative doses,[4]; dogs vs humans,≥ 10 fold
same,Cmax greater in the dog than in humans at representative doses,[4]; dogs vs humans,at least 7 fold
same,"clinical signs, ophthalmic findings, ECG, blood pressure, heart rate, body weights, food consumption","[4]; dogs, 13 weeks","No PTH1-34 related clinical signs, ophthalmic findings, electrocardiogram differences, blood pressure and heart rate differences, body weights, or food consumption changes were noted"
same,effect of addition of CB on permeation of the API,[5],enhanced permeation
"Calcitonin (CGNLSTCMLGTYTQDFNKFHTFPQTAIGVGAP; ends and bridges not checked; cysteine pairing not given here; UniProt P01258 85-116, looked up) [peptide API tested for CB permeation enhancement]",effect of addition of CB on permeation of the API,[5],failed to enhance permeation
Triton X,cytotoxicity (LDH),[6],significant cytotoxicity
same,TER reduction,[7],significant TER reduction
same,cell viability (MTT),[8],significant reduction of cell viability
human growth hormone: protein whose nasal bioavailability in rats was reported raised by N-acetyl-L-cysteine,nasal bioavailability of human growth hormone,[9]; with N-acetyl-L-cysteine,12.2%
same,nasal bioavailability of human growth hormone,[9]; without N-acetyl-L-cysteine,7.5%
